According to ChEMBL document CHEMBL5375977, “Discovery of a First-in-Class GPR183 Antagonist for the Potential Treatment of Rheumatoid Arthritis” (J Med Chem, 2023):
In brackets after ≈: the same amount, converted by molar mass.

Columns and labels:
[1] = Oral bioavailability in ICR mouse at 10 mg/kg measured upto 24 hrs; format: ADME, organism-based; conditions: in vivo
[2] = Half life in ICR mouse at 10 mg/kg,po measured upto 24 hrs; format: ADME, organism-based; conditions: in vivo
[3] = AUClast in ICR mouse at 1 mg/kg,iv measured upto 24 hrs; format: ADME, organism-based; parameters: dose 1 mg/kg, time < 24 hrs, route iv; conditions: in vivo
[4] = Tmax in ICR mouse at 10 mg/kg,po measured upto 24 hrs; format: ADME, organism-based; conditions: in vivo
[5] = Cmax in ICR mouse at 10 mg/kg,po measured upto 24 hrs; format: ADME, organism-based; parameters: time < 24 hrs, dose 10 mg/kg, route po; conditions: in vivo
[6] = Clearance in ICR mouse at 1 mg/kg,iv measured upto 24 hrs; format: ADME, organism-based; conditions: in vivo
[7] = AUClast in ICR mouse at 10 mg/kg,po measured upto 24 hrs; format: ADME, organism-based; parameters: time < 24 hrs, dose 10 mg/kg, route po; conditions: in vivo
[8] = Volume of distribution at steady state in ICR mouse at 1 mg/kg,iv measured upto 24 hrs; format: ADME, organism-based; conditions: in vivo, read-out: Vdss
[9] = Half life in ICR mouse at 1 mg/kg,iv measured upto 24 hrs; format: ADME, organism-based; conditions: in vivo
[10] = Cmax in ICR mouse at 1 mg/kg,iv measured upto 24 hrs; format: ADME, organism-based; parameters: time < 24 hrs, dose 1 mg/kg, route iv; conditions: in vivo
[11] = Aqueous solubility of compound in SGF at pH 2.26; format: physicochemical
[12] = Oral bioavailability in rat at 10 mg/kg measured upto 24 hrs; format: ADME, organism-based; conditions: in vivo
[13] = Oral bioavailability in dog at 10 mg/kg measured upto 24 hrs; format: ADME, organism-based, Canis lupus familiaris; conditions: in vivo
[14] = Half life in mouse Hepatocyte; format: ADME, cell-based; conditions: hepatocytes
[15] = Aqueous solubility of compound in FeSSIF at pH 4.83; format: physicochemical
[16] = Half life in mouse liver microsomes; format: ADME, Microsome
[17] = Half life in rat liver microsomes; format: ADME, Microsome
[18] = Aqueous solubility of compound in FaSSIF at pH 6.28; format: physicochemical
[19] = Apparent permeability across apical to basolateral side in human Caco-2 cells; format: ADME, cell-based
[20] = Cmax in C57BL/6 mouse at 1 mg/kg,po measured upto 24 hrs; format: ADME, organism-based; parameters: dose 1 mg/kg, time < 24 hrs, route po; conditions: in vivo
[21] = Half life in dog liver microsomes; format: ADME, Canis lupus familiaris, Microsome
[22] = Half life in monkey liver microsomes; format: ADME, Macaca mulatta, Microsome; conditions: rhesus monkey
[23] = Half life in human liver microsomes; format: ADME, Microsome
[24] = Drug distribution in C57BL/6 mouse plasma at po administration; format: ADME, organism-based; conditions: in vivo
[25] = Apparent permeability across basolateral to apical side in human Caco-2 cells; format: ADME, cell-based

For `O=C(/C=C/c1ccc2c(c1)OC(F)(F)O2)N1CCN(C(=O)N2CCC2)CC1`, the bioavailability [1] was 116%, the half-life [2] was 1.43 h and the AUC(0-t) at 24 h [3] was 586 ng·h/mL. It also gave a Tmax [4] of 0.25 h, a Cmax [5] of 4900 ng/mL and a clearance [6] of 27.9 mL/min/kg. It also gave an AUC(0-t) at 24 h [7] of 6840 ng·h/mL, a Vd [8] of 0.94 L/kg and a half-life [9] of 0.42 h. For the same molecule, the Cmax [10] was 1000 ng/mL.
With `COc1ncc(C(=O)N2CCN(C(=O)/C=C/c3ccc4c(c3)OC(F)(F)O4)CC2)cn1` the solubility [11] was 63 µM (≈ 27.2 µg/mL), the bioavailability [12] was > 100% and the bioavailability [13] was > 100%. For the same molecule, the half-life [14] was 22.2 h, the solubility [15] was 134 µM (≈ 57.9 µg/mL) and the half-life [16] was > 3.11 h. The AUC(0-t) at 24 h [3] was 4190 ng·h/mL, the half-life [17] was > 3.11 h and the solubility [18] was 40 µM (≈ 17.3 µg/mL). It also gave a Tmax [4] of 1.33 h, a Cmax [5] of 5900 ng/mL and a clearance [6] of 3.98 mL/min/kg. The Papp A→B [19] was 19.6 ×10⁻⁶ cm/s, the AUC(0-t) at 24 h [7] was 49700 ng·h/mL and the Cmax [20] was 878 ng/mL. For the same molecule, the half-life [21] was > 3.11 h, the half-life [22] was > 3.11 h and the half-life [23] was > 3.11 h. The Drug uptake [24] was “Dose-Dependent Effect” and the Papp B→A [25] was 16 ×10⁻⁶ cm/s.
